Reference: US8829194B2, “Crystalline forms of the sodium salt of (4-{4-[5-(6-trifluoromethyl-pyridin-3-ylamino)-pyridin-2-yl]-phenyl}-cyclohexyl)-acetic acid” (Novartis AG, priority 2010, dated 2014)

What was measured:
Assay type in all cases: physicochemical
[1] = Water loss as a function of temperature by TG/DTA (loss on drying, thermal transitions); conditions: for Loss On Drying (LOD) (%): total water loss by thermogravimetry, rt-295° C., 10°/min; for LOD (thermal transitions): DTA signals, temperature at which the water is lost
Source text: (ii) Thermogravimetric/Differential Thermal Analysis (TG/DTA) […]
The data listed below show the total water loss (LOD by thermogravimetry (TG)) and thermal transitions (DTA signals) show the temperature at which the water is lost.

[2] = Physical stability of the crystalline forms (relative humidity, absorption-desorption isotherm FIG. 1, temperature, storage); conditions: absorption-desorption isotherm, FIG. 1
[3] = Humidity microbalance analysis (VTI), moisture sorption at 25° C.; conditions: for hygroscopicity / moisture uptake in words: variations in humidity
Source text: Thus, Modification C retains a stable weight from 0% relative humidity to 80% relative humidity while Modification A loses water with decreasing humidity and gains moisture with increasing humidity. With Modification C, a re-hydration step and the possible variability in water content between batches may thus be eliminated.
Modification N is particularly suitable for industrial scale-up. It is a crystalline anhydrous form.
Modification O is particularly suitable for industrial scale-up. It is a crystalline anhydrous form.

O=C([O-])C[C@H]1CC[C@H](c2ccc(-c3ccc(Nc4ccc(C(F)(F)F)nc4)cn3)cc2)CC1.[Na+] [Modification B, sodium salt of (4-{4-[5-(6-trifluoromethyl-pyridin-3-ylamino)-pyridin-2-yl]-phenyl}-cyclohexyl)-acetic acid]
Loss On Drying (LOD) (%) ([1]; listed as B): 6.9%

O=C([O-])C[C@H]1CC[C@H](c2ccc(-c3ccc(Nc4ccc(C(F)(F)F)nc4)cn3)cc2)CC1.[Na+] [Modification D, sodium salt of (4-{4-[5-(6-trifluoromethyl-pyridin-3-ylamino)-pyridin-2-yl]-phenyl}-cyclohexyl)-acetic acid]
LOD (thermal transitions) ([1]; listed as D): 84.5 °C | Loss On Drying (LOD) (%) ([1]; listed as D): 12.4%

O=C([O-])C[C@H]1CC[C@H](c2ccc(-c3ccc(Nc4ccc(C(F)(F)F)nc4)cn3)cc2)CC1.[Na+] [Modification E, sodium salt of (4-{4-[5-(6-trifluoromethyl-pyridin-3-ylamino)-pyridin-2-yl]-phenyl}-cyclohexyl)-acetic acid]
Loss On Drying (LOD) (%) ([1]; listed as E): 9.5%

O=C([O-])C[C@H]1CC[C@H](c2ccc(-c3ccc(Nc4ccc(C(F)(F)F)nc4)cn3)cc2)CC1.[Na+] [Modification F, sodium salt of (4-{4-[5-(6-trifluoromethyl-pyridin-3-ylamino)-pyridin-2-yl]-phenyl}-cyclohexyl)-acetic acid]
LOD (thermal transitions) ([1]; listed as F): 90 °C | Loss On Drying (LOD) (%) ([1]; listed as F): 3.5%

O=C([O-])C[C@H]1CC[C@H](c2ccc(-c3ccc(Nc4ccc(C(F)(F)F)nc4)cn3)cc2)CC1.[Na+] [Modification G, sodium salt of (4-{4-[5-(6-trifluoromethyl-pyridin-3-ylamino)-pyridin-2-yl]-phenyl}-cyclohexyl)-acetic acid]
Loss On Drying (LOD) (%) ([1]; listed as G): 11.7%

O=C([O-])C[C@H]1CC[C@H](c2ccc(-c3ccc(Nc4ccc(C(F)(F)F)nc4)cn3)cc2)CC1.[Na+] [Modification H, sodium salt of (4-{4-[5-(6-trifluoromethyl-pyridin-3-ylamino)-pyridin-2-yl]-phenyl}-cyclohexyl)-acetic acid]
LOD (thermal transitions) ([1]; listed as H): 68.3 °C | Loss On Drying (LOD) (%) ([1]; listed as H): 3%

O=C([O-])C[C@H]1CC[C@H](c2ccc(-c3ccc(Nc4ccc(C(F)(F)F)nc4)cn3)cc2)CC1.[Na+] [Modification I, sodium salt of (4-{4-[5-(6-trifluoromethyl-pyridin-3-ylamino)-pyridin-2-yl]-phenyl}-cyclohexyl)-acetic acid]
Loss On Drying (LOD) (%) ([1]; listed as I): 9.5%

O=C([O-])C[C@H]1CC[C@H](c2ccc(-c3ccc(Nc4ccc(C(F)(F)F)nc4)cn3)cc2)CC1.[Na+] [Modification J, sodium salt of (4-{4-[5-(6-trifluoromethyl-pyridin-3-ylamino)-pyridin-2-yl]-phenyl}-cyclohexyl)-acetic acid]
Loss On Drying (LOD) (%) ([1]; listed as J): 3.1%

O=C([O-])C[C@H]1CC[C@H](c2ccc(-c3ccc(Nc4ccc(C(F)(F)F)nc4)cn3)cc2)CC1.[Na+] [Modification L, sodium salt of (4-{4-[5-(6-trifluoromethyl-pyridin-3-ylamino)-pyridin-2-yl]-phenyl}-cyclohexyl)-acetic acid]
LOD (thermal transitions) ([1]; listed as L): 65 °C | Loss On Drying (LOD) (%) ([1]; listed as L): 14.9%

O=C([O-])C[C@H]1CC[C@H](c2ccc(-c3ccc(Nc4ccc(C(F)(F)F)nc4)cn3)cc2)CC1.[Na+] [Modification M, sodium salt of (4-{4-[5-(6-trifluoromethyl-pyridin-3-ylamino)-pyridin-2-yl]-phenyl}-cyclohexyl)-acetic acid]
relative humidity range in which the form is stable [2]: below 10 % relative humidity | LOD (thermal transitions) ([1]; listed as M): None | Loss On Drying (LOD) (%) ([1]; listed as M): 0%

O=C([O-])C[C@H]1CC[C@H](c2ccc(-c3ccc(Nc4ccc(C(F)(F)F)nc4)cn3)cc2)CC1.[Na+] [Modification N, sodium salt of (4-{4-[5-(6-trifluoromethyl-pyridin-3-ylamino)-pyridin-2-yl]-phenyl}-cyclohexyl)-acetic acid]
relative humidity at which moisture gain starts / becomes significant [3]: 70 % relative humidity | Mass uptake (% water absorbed) ([3]; 0 % residual humidity): 0.0% | Mass uptake (% water absorbed) ([3]; 10 % residual humidity): 0.1% | Mass uptake (% water absorbed) ([3]; 50 % residual humidity): 0.7% | Mass uptake (% water absorbed) ([3]; 60 % residual humidity): 0.9% | Mass uptake (% water absorbed) ([3]; 70 % residual humidity): 1.0% | Mass uptake (% water absorbed) ([3]; 79 % residual humidity): 3.7% | Mass uptake (% water absorbed) ([3]; 90 % residual humidity): 18.2% | Mass uptake (% water absorbed) ([3]; 95 % residual humidity): 19.1% | hygroscopicity / moisture uptake in words [3]: low hygroscopicity | LOD (thermal transitions) [1]: None | Loss On Drying (LOD) (%) [1]: 0.3%

O=C([O-])C[C@H]1CC[C@H](c2ccc(-c3ccc(Nc4ccc(C(F)(F)F)nc4)cn3)cc2)CC1.[Na+] [Modification O, sodium salt of (4-{4-[5-(6-trifluoromethyl-pyridin-3-ylamino)-pyridin-2-yl]-phenyl}-cyclohexyl)-acetic acid]
relative humidity at which moisture gain starts / becomes significant [3]: 80 % relative humidity | Mass uptake (% water absorbed) ([3]; 0 % residual humidity): 0.0% | Mass uptake (% water absorbed) ([3]; 10 % residual humidity): 0.0% | Mass uptake (% water absorbed) ([3]; 50 % residual humidity): −0.5% | Mass uptake (% water absorbed) ([3]; 60 % residual humidity): −0.5% | Mass uptake (% water absorbed) ([3]; 70 % residual humidity): −0.5% | Mass uptake (% water absorbed) ([3]; 79 % residual humidity): −0.4% | Mass uptake (% water absorbed) ([3]; 90 % residual humidity): 4.3% | Mass uptake (% water absorbed) ([3]; 95 % residual humidity): 13.3% | hygroscopicity / moisture uptake in words [3]: low hygroscopicity | LOD (thermal transitions) [1]: None | Loss On Drying (LOD) (%) [1]: 1.2%

O=C([O-])C[C@H]1CC[C@H](c2ccc(-c3ccc(Nc4ccc(C(F)(F)F)nc4)cn3)cc2)CC1.[Na+] [Modification P, sodium salt of (4-{4-[5-(6-trifluoromethyl-pyridin-3-ylamino)-pyridin-2-yl]-phenyl}-cyclohexyl)-acetic acid]
LOD (thermal transitions) ([1]; listed as P): 65 °C | Loss On Drying (LOD) (%) ([1]; listed as P): 10.9%
